Source: article PMC8645336, “Benchmarking a highly selective USP30 inhibitor for enhancement of mitophagy and pexophagy” (Life Science Alliance, 2021)

Legend:
OTUB2 = biological target: T1, OTUB2 (Homo sapiens, UniProt Q96DC9); experiment: biochemical; parameters: Ubiquigent DUB profiler selectivity panel, remaining enzyme activity as % of control; conditions: read-out: % of control remaining
T1 sequence (Q96DC9 1-234): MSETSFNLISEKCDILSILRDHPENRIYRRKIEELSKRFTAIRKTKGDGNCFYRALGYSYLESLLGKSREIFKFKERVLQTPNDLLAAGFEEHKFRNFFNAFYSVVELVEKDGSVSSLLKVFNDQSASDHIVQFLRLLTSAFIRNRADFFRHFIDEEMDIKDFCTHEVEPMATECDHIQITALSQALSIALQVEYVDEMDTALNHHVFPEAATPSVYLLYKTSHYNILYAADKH
Procedure, shortened: (§1)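 CMPD-39 selectivity was profiled at 1-100 μM across >40 DUBs. Cellular engagement used 2 h CMPD-39 pretreatment, then HA-Ub-PA probe for 10 min at 37°C, with USP30 band shift on immunoblot. TOMM20 ubiquitylation was blotted in YFP-PRKN hTERT-RPE1 cells after 1 h antimycin A/oligomycin A (1 μM each).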

USP15 = biological target: T2, USP15 (Homo sapiens, UniProt Q9Y4E8); experiment: biochemical; parameters: Ubiquigent DUB profiler selectivity panel, remaining enzyme activity as % of control; conditions: read-out: % of control remaining
T2 sequence (Q9Y4E8 1-981): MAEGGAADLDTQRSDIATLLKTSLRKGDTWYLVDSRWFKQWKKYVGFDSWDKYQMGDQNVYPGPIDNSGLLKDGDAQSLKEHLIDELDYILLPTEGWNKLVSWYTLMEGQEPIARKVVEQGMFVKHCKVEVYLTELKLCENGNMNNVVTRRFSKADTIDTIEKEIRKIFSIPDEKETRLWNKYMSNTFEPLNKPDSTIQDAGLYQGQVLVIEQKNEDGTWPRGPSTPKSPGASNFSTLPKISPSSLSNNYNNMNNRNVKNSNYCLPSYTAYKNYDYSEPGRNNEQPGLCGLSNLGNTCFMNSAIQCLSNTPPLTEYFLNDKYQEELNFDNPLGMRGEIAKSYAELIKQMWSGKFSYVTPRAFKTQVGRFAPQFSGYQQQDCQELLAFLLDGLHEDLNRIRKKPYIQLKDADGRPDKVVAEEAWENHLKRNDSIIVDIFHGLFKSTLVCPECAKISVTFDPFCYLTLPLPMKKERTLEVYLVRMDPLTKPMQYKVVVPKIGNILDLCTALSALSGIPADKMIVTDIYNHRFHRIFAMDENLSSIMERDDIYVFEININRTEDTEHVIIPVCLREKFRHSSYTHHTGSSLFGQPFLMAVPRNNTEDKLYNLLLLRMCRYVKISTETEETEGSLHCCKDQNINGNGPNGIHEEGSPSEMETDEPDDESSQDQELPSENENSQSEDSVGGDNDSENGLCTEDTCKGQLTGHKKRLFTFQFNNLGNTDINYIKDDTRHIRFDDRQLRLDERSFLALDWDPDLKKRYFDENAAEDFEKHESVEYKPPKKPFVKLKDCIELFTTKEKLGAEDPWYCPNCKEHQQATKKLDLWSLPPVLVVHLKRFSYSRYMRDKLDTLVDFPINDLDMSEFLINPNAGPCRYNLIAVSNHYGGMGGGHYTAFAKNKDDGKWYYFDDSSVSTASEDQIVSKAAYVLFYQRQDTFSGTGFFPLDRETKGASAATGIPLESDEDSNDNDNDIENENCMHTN
Procedure, shortened: as §1

CC(C)(C)NS(=O)(=O)c1ccc(NC(=O)[C@H](Cc2ccccc2)NC(=O)c2ccc(F)cc2)cc1 [compound 39, CMPD-39]
remaining activity at 1 µM (OTUB2): 103%
remaining activity at 10 µM (OTUB2): 97.5%
remaining activity at 100 µM (OTUB2): 97.3%
remaining activity at 1 µM (USP15): 103%
remaining activity at 10 µM (USP15): 101%
remaining activity at 100 µM (USP15): 98.1%
